Data on 39 compounds can be found in the C3SDB collision cross section collection.

Each structure is given as a SMILES string. Values joined by “and” are separate entries in the source; they are usually repeats but may differ in a detail not shown here. Equal entries are not always repeated.

The conditions of the data set: instrument: DT, single field, calibrated with Agilent tune mix (Agilent).

For the compound `CC(=O)N[C@@H](CC(=O)O)C(=O)O` [N-Acetyl-L-aspartic acid], the “collision cross section (N2)” value is, setting by setting: ([M+Na]+) 139 Å²; ([M-H]-) 129.21 Å².
For the compound `CC(=O)N[C@@H](Cc1ccccc1)C(=O)O` [N-Acetyl-L-phenylalanine], the “collision cross section (N2)” value ([M+Na]+) came out at 149.8 Å² and the “collision cross section (N2)” value ([M-H]-) is 144.2 Å².
`CC(=O)N[C@@H](CC(=O)O)C(=O)N[C@@H](CCC(=O)O)C(=O)O` [N-Acetylaspartylglutamate (NAAG)]: for the setting “[M+Na]+”, the “collision cross section (N2)” value was 166.3 Å².
On to `CC(=O)N[C@@H](CC(=O)O)C(=O)N[C@@H](CCC(=O)O)C(=O)O` [N-Acetylaspartylglutamate], for which the “collision cross section (N2)” value ([M-H2O-H]-) is 156.77 Å².
For `CC(=O)N[C@@H](CCC(N)=O)C(=O)O` [N-Acetylglutamine], the “collision cross section (N2)” value reads like this: ([M+Na]+) 144.4 Å²; ([M-H]-) 136.82 Å².
For the compound `CSCC[C@H](NC=O)C(=O)O` [N-Formylmethionine], for the setting “[M-H]-”, the “collision cross section (N2)” value is on record as 134.09 Å².
`NC(=O)c1ccc[n+]([C@@H]2O[C@H](COP(=O)(O)OP(=O)(O)OC[C@H]3O[C@@H](n4cnc5c(N)ncnc54)[C@H](OP(=O)(O)O)[C@@H]3O)[C@@H](O)[C@H]2O)c1` [Nicotinamide adenine dinucleotide phosphate (NADP)]: the “collision cross section (N2)” value ([M+H]+) is reported as 230.9 Å².
For the compound `NC(=O)c1ccc[n+]([C@@H]2O[C@H](COP(=O)(O)OP(=O)(O)OC[C@H]3O[C@@H](n4cnc5c(N)ncnc54)[C@H](OP(=O)(O)O)[C@@H]3O)[C@@H](O)[C@H]2O)c1` [Nicotinamide adenine dinucleotide phosphate], for the setting “[M-H]-”, the “collision cross section (N2)” value was found to be 228.27 Å².
Regarding `NC(=O)c1ccc[n+]([C@@H]2O[C@H](COP(=O)([O-])O)[C@@H](O)[C@H]2O)c1` [Nicotinamide ribotide], the “collision cross section (N2)” value ([M+H]+) turned out to be 165.2 Å².
`NC[C@H](O)c1ccc(O)c(O)c1` [Norepinephrine]: the “collision cross section (N2)” value is 137.3 Å² and 136.8 Å² ([M+H-H2O]+); 131.99 Å² ([M-H]-).
`NCCOP(=O)(O)O` [O-Phosphoethanolamine]: the “collision cross section (N2)” value ([M-H]-) is 121.6 Å².
Consider `N[C@@H](Cc1ccc(OP(=O)(O)O)cc1)C(=O)O` [O-Phosphotyrosine], for which the “collision cross section (N2)” value was 162.2 Å² ([M+H]+) and 149.33 Å² ([M+Na-2H]-).
As to `CCCCCCCC(=O)SCCNC(=O)CCNC(=O)[C@H](O)C(C)(C)COP(=O)(O)OP(=O)(O)OC[C@H]1O[C@@H](n2cnc3c(N)ncnc32)[C@H](O)[C@@H]1OP(=O)(O)O` [Octanoyl-CoA], under “[M-H]-”, the “collision cross section (N2)” value is reported as 268.72 Å².
For the compound `CCCCCCCCCCCCCCCC(=O)SCCNC(=O)CCNC(=O)[C@H](O)C(C)(C)COP(=O)(O)OP(=O)(O)OC[C@H]1O[C@@H](n2cnc3c(N)ncnc32)[C@H](O)[C@@H]1OP(=O)(O)O` [Palmitoyl CoA], the “collision cross section (N2)” value is, setting by setting: ([M+H]+) 296.2 Å²; ([M-H]-) 296.46 Å².
In the case of `CC(C)(CO)[C@@H](O)C(=O)NCCC(=O)O` [Pantothenate], where the note is “[M+H]+”, the “collision cross section (N2)” value was determined as 148.1 Å².
As to `O=C(O)c1ccc(O)c(O)c1` [Protocatechuic acid], under “[M+H-H2O]+”, the “collision cross section (N2)” value is 122.3 Å².
On to `Cc1ncc(COP(=O)(O)O)c(CN)c1O` [Pyridoxamine 5'-phosphate], for which the “collision cross section (N2)” value ([M+H]+) amounted to 150.9 Å².
Consider `O=c1c(O)c(-c2ccc(O)c(O)c2)oc2cc(O)cc(O)c12` [Quercetin], for which the “collision cross section (N2)” value by setting is: ([M+H]+) 166.7 Å²; ([M-H]-) 158.98 Å².
`O=C(O)c1cccnc1C(=O)O` [Quinolinate]: the “collision cross section (N2)” value ([M+H-H2O]+) is recorded as 130.5 Å².
With `CC1=C(/C=C/C(C)=C/C=C/C(C)=C/C=O)C(C)(C)CCC1` [Retinene], the “collision cross section (N2)” value ([M+H]+) worked out at 170.1 Å².
For `Cc1cc2nc3c(=O)[nH]c(=O)nc-3n(C[C@H](O)[C@H](O)[C@H](O)CO)c2cc1C` [Riboflavin (Vitamin B2)], the “collision cross section (N2)” value is 188.3 Å² ([M+H]+) and 184.12 Å² ([M-H]-).
As to `CSC[C@H]1O[C@@H](n2cnc3c(N)ncnc32)[C@H](O)[C@@H]1O` [S-Methyl-5'-thioadenosine], the “collision cross section (N2)” value ([M+H]+) was found to be 162.5 Å².
As for `O=C(O)CNC(=O)c1ccccc1O` [Salicyluric acid], the “collision cross section (N2)” value ([M-H]-) came out at 133.01 Å².
As to `C[C@H](O)C(=O)C1=Nc2c([nH]c(N)nc2=O)NC1` [Sepiapterin], the “collision cross section (N2)” value ([M+H]+) was 152.8 Å² and the “collision cross section (N2)” value ([M-H2O-H]-) worked out at 144.47 Å².
On to `NCCCCNCCCN` [Spermidine], for which the “collision cross section (N2)” value ([M+H]+) was determined as 131.9 Å².
As to `CCCCCCCCCCCCCCCCCC(N)=O` [Stearamide], the “collision cross section (N2)” value ([M+H]+) came to 188.3 Å².
For `CCCCCCCCCCCCCCCCCC(=O)O[C@H](CC(=O)[O-])C[N+](C)(C)C` [Stearoylcarnitine], the “collision cross section (N2)” value ([M+H]+) came to 221.1 Å².
As to `C[C@H](CCC(=O)NCCS(=O)(=O)O)[C@H]1CC[C@H]2[C@@H]3[C@H](O)C[C@@H]4C[C@H](O)CC[C@]4(C)[C@H]3CC[C@]12C` [Taurochenodeoxycholate], the “collision cross section (N2)” value ([M+Na]+) came out at 207.4 Å² and the “collision cross section (N2)” value ([M-H]-) is 205.39 Å².
As to `C[C@H](CCC(=O)NCCS(=O)(=O)O)[C@H]1CC[C@H]2[C@@H]3CC[C@@H]4C[C@H](O)CC[C@]4(C)[C@H]3C[C@H](O)[C@]12C` [Taurodeoxycholic acid], the “collision cross section (N2)” value by setting is: ([M+H]+) 204.5 Å²; ([M-H]-) 204.37 Å².
With `C[C@H](CCC(=O)NCCS(=O)(=O)O)[C@H]1CC[C@H]2[C@@H]3CC[C@@H]4C[C@H](O)CC[C@]4(C)[C@H]3CC[C@]12C` [Taurolithocholic acid], the “collision cross section (N2)” value is, setting by setting: ([M+H-H2O]+) 220.6 Å²; ([M-H]-) 204.62 Å².
Consider `O=C(O)CCCCC1CCSS1` (stereo not drawn) [Thioctic acid], for which, for the setting “[M+H-H2O]+”, the “collision cross section (N2)” value amounted to 133.8 Å².
On to `OC[C@H]1O[C@H](O[C@H]2O[C@H](CO)[C@@H](O)[C@H](O)[C@H]2O)[C@H](O)[C@@H](O)[C@@H]1O` [Trehalose], for which the “collision cross section (N2)” value ([M+Na]+) is 174.9 Å².
With `CCCCCCCCCCCCC(=O)O` [Tridecanoic acid], the “collision cross section (N2)” value ([M-H]-) turned out to be 155.16 Å².
On to `CCCCCCCCCCC(=O)O` [Undecanoic Acid], for which, for the setting “[M-H]-”, the “collision cross section (N2)” value was determined as 148.87 Å².
For the compound `O=c1ccn([C@@H]2O[C@H](COP(=O)(O)O)[C@@H](O)[C@H]2O)c(=O)[nH]1` [Uridine 5'-monophosphate], for the setting “[M+Na]+”, the “collision cross section (N2)” value is on record as 171.8 Å².
Take `O=C(O)/C=C/c1cnc[nH]1` [Urocanic acid]: the “collision cross section (N2)” value ([M+H]+) was 134.1 Å² and the “collision cross section (N2)” value ([M-H]-) came to 118.78 Å².
For `O=P(O)(O)OC1O[C@H](CO)[C@@H](O)[C@H](O)[C@H]1O` (stereo partly drawn) [a-D-Galactose 1-phosphate], the “collision cross section (N2)” value is on record as 157.5 Å² ([M+Na]+) and 145.32 Å² ([M-H]-).
Take `C[C@]12CC[C@@H]3c4ccc(O)cc4CC[C@H]3[C@@H]1CC[C@@H]2O` [beta-Estradiol]: the “collision cross section (N2)” value ([M+H-H2O]+) is recorded as 159.7 Å².
Turning to `NC(=O)c1ccc[n+]([C@@H]2O[C@H](COP(=O)([O-])O)[C@@H](O)[C@H]2O)c1` [beta-Nicotinamide D-ribonucleotide], the “collision cross section (N2)” value ([M]+) was 165.2 Å².
